According to patent US20060159617A1, “Small technetium-99m and rhenium labeled agents and methods for imaging tissues, organs and tumors” (priority 2002, published 2006):

How the values were obtained:
[1] = biological target: T1, 5HT1A receptor (Rattus norvegicus, UniProt P19327); assay: 5HT1A receptor competition binding assay with [3H]-8-OH-DPAT; details: apparent Ki, rat hippocampus
T1 construct: The brains were rapidly removed, and hippocampus, frontal cortex, hypothalamus, and striatum were hand-dissected on ice; from tissue; host or cells: male Sprague-Dawley rat hippocampus membranes
T1 sequence (P19327 1-422): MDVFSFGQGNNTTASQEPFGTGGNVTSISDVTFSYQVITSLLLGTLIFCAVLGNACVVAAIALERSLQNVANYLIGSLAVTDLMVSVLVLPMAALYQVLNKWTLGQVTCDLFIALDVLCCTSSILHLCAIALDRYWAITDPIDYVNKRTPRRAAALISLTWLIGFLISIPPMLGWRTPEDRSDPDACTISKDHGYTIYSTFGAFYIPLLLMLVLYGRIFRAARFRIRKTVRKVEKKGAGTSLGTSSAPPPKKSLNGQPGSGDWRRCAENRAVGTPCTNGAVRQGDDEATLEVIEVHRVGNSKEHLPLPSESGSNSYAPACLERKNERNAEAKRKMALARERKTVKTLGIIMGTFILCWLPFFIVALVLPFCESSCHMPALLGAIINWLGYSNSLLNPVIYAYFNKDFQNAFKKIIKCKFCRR
Method: The in vitro 5HT1A binding affinities of rhenium coordinated complexes were determined in a competition assay using rat hippocampus and high-affinity 5HT1A-ligand [^3H]-8-OH-DPAT (135 Ci/mmol, NEN Life Science Inc., Cambridge, Mass.). See, Brain Res. 1995, 673, 217-225.
Male Sprague-Dawley rats (weighing 150-170 g) were sacrificed using anesthesia agent isoflurane. The brains were rapidly removed, and hippocampus, frontal cortex, hypothalamus, and striatum were hand-dissected on ice and stored at −70° C. Tissue was thawed at room temperature and homogenized using a Brinkmann Polytron tissue disrupter in 50 volumes (wt/vol) of ice-cold 50 mM Tris-HCl buffer (pH 7.4). The suspension was centrifuged twice at 27,000 g for 20 min at 4° C. The membrane pellets were resuspended in 50 volumes of (wt/vol) Tris-HCl buffer and incubated at 37° C. for 20 min in a water bath, before a final centrifugation step (27,000 g; 20 min; 4° C.). The final tissue pellets were stored at −70° C. until assayed.
Twelve concentrations of the nonradioactive rhenium complexes ranging from 1×10^−11 to 1×10^−4 and protein samples (0.15 mg of membrane protein) were incubated with 1.5 nM [^3H]-8-OH-DPAT in a total volume of 0.25 mL of Tris-HCl (50 mM, pH 7.4, 10 mM MgSO4). Incubations were carried out for 60 min at 25° C. All assays were terminated by dilution with 5 mL of ice-cold Tris-HCl (10 mM), pH 7.4, and solution were filtered through glass-fiber filters (Whatman GF/F; presoaked in 0.5% polyethyleneimine for 30 min at 25° C.). Filters were then washed three times with 5 mL of ice-cold Tris-HCl (50 mM, pH 7.4), and counted in Hionic-Fluor cocktail (Packard, Groningen, the Netherlands). The corresponding IC50 values were determined with Origin 6.0 software (OriginLab, Northampton, Mass.) and were used for the calculation of the apparent Ki values with the Cheng-Prusoff equation. See, Biochem. Pharmacol. 1973, 22, 3099-3108.

[2] = biological target: T2, σ1 receptor (Cavia porcellus, UniProt Q60492); assay: Sigma-1 receptor competition binding assay with [3H]-(+)-pentazocine; design: species or system guinea pig; details: apparent Ki (Cheng-Prusoff), brain membranes
T2 construct: The membranes were prepared from guinea pig brain (minus cerebellum) as described above; from tissue; host or cells: guinea pig brain (minus cerebellum) membranes
T2 sequence (Q60492 whole entry): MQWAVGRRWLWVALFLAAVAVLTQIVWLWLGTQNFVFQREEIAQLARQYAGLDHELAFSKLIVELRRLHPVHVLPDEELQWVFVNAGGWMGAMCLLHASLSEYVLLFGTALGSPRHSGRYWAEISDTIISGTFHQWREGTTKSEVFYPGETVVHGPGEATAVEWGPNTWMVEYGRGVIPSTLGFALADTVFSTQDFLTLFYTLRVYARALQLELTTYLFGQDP
Method: The in vitro σ1 receptor binding affinities of rhenium coordinated complexes were determined in a competition assay using […] and high-affinity σ1 ligand [3H]-(+)-pentazocine (28 Ci/mmol, NEN Life Science Inc., Cambridge, Mass.). See, Mol. Neuropharmacol. 1993, 3, 117-126.
The membranes were prepared from guinea pig brain (minus cerebellum) as described above and stored at −70 ° C. Twelve concentrations of the nonradioactive rhenium complexes ranging from 1×10^−11 to 1×10^−3 and protein samples (0.15 mg of membrane protein) were incubated with […] [3H]-(+)-pentazocine in a total volume of 0.25 mL of Tris-HCl (50 mM, pH 8.0). Incubations were carried out for 120 min at 25° C. All assays were terminated by dilution with 5 mL of ice-cold Tris-HCl (10 mM), pH 8.0, and solution were filtered through glass-fiber filters (Whatman GF/F; presoaked in 0.5% polyethyleneimine for 30 min at 25° C.). Filters were then washed three times with 5 mL of ice-cold Tris-HCl (50 mM, pH 8.0), and counted in Hionic-Fluor cocktail (Packard, Groningen, the Netherlands). The corresponding IC50 values were determined with Origin 6.0 software (OriginLab, Northampton, Mass.) and were used for the calculation of the apparent Ki values with the Cheng-Prusoff equation. See, Biochem. Pharmacol. 1973, 22, 3099-3108.

SMILES | Ki [1] [nM] | Ki [2] [nM]
O=C1CN(CCCN2CCC(Cc3ccccc3)CC2)CC[S][Re]2(=[O])[S]CC[N]12 (stereo not shown) [Re-15] | 589 ± 70 | 547
COc1ccccc1C1CCN(CCCN2CC[S][Re]3(=[O])[S]CC[N]3C(=O)C2)CC1 (stereo not shown) [Re-16] | 4.5 ± 0.4 | 4830
